Test [1] addresses HEK-293 cells transfected with dox-inducible human wild type FGFR3 (Homo sapiens (Human), UniProt P22607). Description: FGFR3 pFGFR cell assay (ELISA). It counts as cell-based. The note with it: HEK-293 dox-inducible FGFR3, 1 hour compound, 100 ng/ml FGF-acidic. The essentials:
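Doxycycline-induced (1 μg/ml) HEK-293 cells expressing wild-type human FGFR3, treated 1 h with compound (1:3 series, top final 5 μM), then stimulated 5 min with 100 ng/ml FGF-acidic. Phospho-FGFR3 measured by ELISA (total FGFR3 capture, phosphotyrosine detection, OD 450 nm); IC50 from 4-parameter fit of POC values.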
A general note: In an ELISA, binding on a coated surface is turned into a signal by an enzyme label.

Test [2] concerns the target recombinant human FGFR3 (amino acids R397-T806) (Homo sapiens (Human), UniProt P22607). Description: FGFR3 enzyme activity assay (LanthaScreen TR-FRET). It counts as biochemical. Particulars: 25 μM ATP, 10 min incubation at 22° C., average of multiple determinations if made, read-out: FGFR3 Enz FRET IC50. The essentials:
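GST-HIS6-tagged human FGFR3 (R397-T806) was reacted with 100 nM Alexa Fluor 647-Poly-GT substrate and 25 μM ATP plus compound in HEPES/MgCl2/Triton buffer, pH 7.5, 2% DMSO, for 10 min at 22 °C.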

Molecules are shown by their SMILES.

recombinant human FGFR3 (amino acids R397-T806), sequence (P22607 397-806): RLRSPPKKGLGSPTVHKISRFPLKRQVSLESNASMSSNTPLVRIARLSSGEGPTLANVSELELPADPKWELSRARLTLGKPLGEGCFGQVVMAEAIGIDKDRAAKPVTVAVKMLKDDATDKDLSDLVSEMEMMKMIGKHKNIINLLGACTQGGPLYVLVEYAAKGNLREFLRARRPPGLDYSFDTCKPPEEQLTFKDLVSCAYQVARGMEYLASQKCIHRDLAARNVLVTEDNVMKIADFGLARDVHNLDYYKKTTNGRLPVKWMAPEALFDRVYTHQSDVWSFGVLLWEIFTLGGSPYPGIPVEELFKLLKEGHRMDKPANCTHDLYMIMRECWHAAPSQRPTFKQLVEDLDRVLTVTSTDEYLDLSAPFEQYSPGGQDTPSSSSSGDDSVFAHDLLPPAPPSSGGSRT
HEK-293 cells transfected with dox-inducible human wild type FGFR3, sequence (P22607 23-806): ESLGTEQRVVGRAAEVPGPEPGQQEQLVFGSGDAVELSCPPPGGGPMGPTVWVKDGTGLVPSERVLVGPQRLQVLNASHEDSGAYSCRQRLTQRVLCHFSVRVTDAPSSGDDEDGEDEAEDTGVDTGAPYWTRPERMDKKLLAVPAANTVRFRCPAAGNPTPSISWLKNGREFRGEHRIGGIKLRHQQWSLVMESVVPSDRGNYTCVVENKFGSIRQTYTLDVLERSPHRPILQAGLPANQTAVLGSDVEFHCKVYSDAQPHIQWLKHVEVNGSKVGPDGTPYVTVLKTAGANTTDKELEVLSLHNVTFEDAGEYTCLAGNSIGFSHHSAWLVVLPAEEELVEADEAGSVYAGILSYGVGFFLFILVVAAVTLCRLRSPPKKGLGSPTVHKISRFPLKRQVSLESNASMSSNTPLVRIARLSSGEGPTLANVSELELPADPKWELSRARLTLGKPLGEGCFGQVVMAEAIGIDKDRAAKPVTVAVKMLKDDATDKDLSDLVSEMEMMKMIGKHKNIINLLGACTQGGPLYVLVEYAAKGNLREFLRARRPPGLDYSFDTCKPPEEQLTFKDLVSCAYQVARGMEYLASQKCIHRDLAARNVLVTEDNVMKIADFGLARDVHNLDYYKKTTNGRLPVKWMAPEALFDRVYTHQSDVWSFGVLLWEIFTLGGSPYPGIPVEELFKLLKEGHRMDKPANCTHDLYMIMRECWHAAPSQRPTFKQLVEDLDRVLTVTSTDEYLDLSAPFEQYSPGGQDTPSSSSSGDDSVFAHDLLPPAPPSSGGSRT

For orientation: IC50 means the concentration that inhibits the measured activity by half. With `C=CC(=O)Nc1ccc(C(=O)N2CCC[C@@H](n3cc(-c4cc(OC)c5c(C#N)cnn5c4)cn3)C2)cc1` [Example 23, (R)-N-(4-(3-(4-(3-cyano-4-methoxypyrazolo[1,5-a]pyridin-6-yl)-1H-pyrazol-1-yl)piperidine-1-carbonyl)phenyl)acrylamide], the IC50 in test [1] stood at 90 nM; in test [2] it was 16 nM.

For the compound `C=CC(=O)Nc1ccccc1C(=O)N1CCC[C@@H](n2cc(-c3cc(OC)c4c(C#N)cnn4c3)cn2)C1` [Example 25, (R)-N-(2-(3-(4-(3-cyano-4-methoxypyrazolo[1,5-a]pyridin-6-yl)-1H-pyrazol-1-yl)piperidine-1-carbonyl)phenyl)acrylamide], the IC50 is 83 nM in test [1] and 12 nM in test [2].

As to `C=CC(=O)Nc1cccc(C(=O)N2CCC[C@@H](n3cc(-c4cc(OC)c5c(C#N)cnn5c4)cn3)C2)c1` [Example 24, (R)-N-(3-(3-(4-(3-cyano-4-methoxypyrazolo[1,5-a]pyridin-6-yl)-1H-pyrazol-1-yl)piperidine-1-carbonyl)phenyl)acrylamide], the IC50 worked out at 435 nM in test [1] and 31 nM in test [2].

In the case of `C=CC(=O)Nc1ccc(C(=O)N2CC[C@H](n3cc(-c4cc(OC)c5c(C#N)cnn5c4)cn3)C2)cc1` [Example 66, (S)-N-(4-(3-(4-(3-cyano-4-methoxypyrazolo[1,5-a]pyridin-6-yl)-1H-pyrazol-1-yl)pyrrolidine-1-carbonyl)phenyl)acrylamide], the IC50 in test [1] came to 82 nM; in test [2] it was 7 nM.

On to `C=CC(=O)N1CCC(C#N)(C(=O)N2CCC(n3cc(-c4cc(OC)c5c(C#N)cnn5c4)cn3)CC2)CC1` [Example 14, 6-(1-(1-(1-acryloyl-4-cyanopiperidine-4-carbonyl)piperidin-4-yl)-1H-pyrazol-4-yl)-4-methoxypyrazolo[1,5-a]pyridine-3-carbonitrile], for which the IC50 in test [1] was determined as 25 nM; in test [2], 3 nM.

`C=CC(=O)N1CC(CC)(C(=O)N2CCC(n3cc(-c4cc(OC)c5c(C#N)cnn5c4)cn3)CC2)C1` [Example 40, 6-(1-(1-(1-acryloyl-3-ethylazetidine-3-carbonyl)piperidin-4-yl)-1H-pyrazol-4-yl)-4-methoxypyrazolo[1,5-a]pyridine-3-carbonitrile]: the figures for the IC50 in test [1] and in test [2] were 16 nM and 2 nM, respectively.

Regarding `C=CC(=O)N1CCC(F)(C(=O)N2CCC(n3cc(-c4cc(OC)c5c(C#N)cnn5c4)cn3)CC2)C1` (centres unmarked) [Example 30, 6-(1-(1-(1-acryloyl-3-fluoropyrrolidine-3-carbonyl)piperidin-4-yl)-1H-pyrazol-4-yl)-4-methoxypyrazolo[1,5-a]pyridine-3-carbonitrile], the IC50 in test [1] worked out at 23 nM; in test [2], 2 nM.

On to `C=CC(=O)N1CC(C(=O)N2CC(n3cc(-c4cc(OC)c5c(C#N)cnn5c4)cn3)C2)C1` [Example 78, 6-(1-(1-(1-acryloylazetidine-3-carbonyl)azetidin-3-yl)-1H-pyrazol-4-yl)-4-methoxypyrazolo[1,5-a]pyridine-3-carbonitrile], for which the results for the IC50 in test [1] and in test [2] were 536 nM and 12 nM, respectively.

Take `C=CC(=O)N1CC(CN2CC(n3cc(-c4cc(OC)c5c(C#N)cnn5c4)cn3)C2)C1` [Example 81, 6-(1-(1-((1-acryloylazetidin-3-yl)methyl)azetidin-3-yl)-1H-pyrazol-4-yl)-4-methoxypyrazolo[1,5-a]pyridine-3-carbonitrile]: the IC50 in test [1] stood at 117 nM; in test [2] it was 9 nM.

As for `C=CC(=O)Nc1cccc(C(=O)N2CCC(n3cc(-c4cc(OC)c5c(C#N)cnn5c4)cn3)CC2)c1` [Example 22, N-(3-(4-(4-(3-cyano-4-methoxypyrazolo[1,5-a]pyridin-6-yl)-1H-pyrazol-1-yl)piperidine-1-carbonyl)phenyl)acrylamide], the IC50 is 87 nM in test [1] and 4 nM in test [2].

Values taken from patent US12180207B2 (ARRAY BIOPHARMA INC., priority 2018, dated 2024).
